Laboratory results published in paper PMC10531093, “First-Generation Synthetic Cathinones Produce Arrhythmia in Zebrafish Eleutheroembryos: A New Approach Methodology for New Psychoactive Substances Cardiotoxicity Evaluation” (International Journal of Molecular Sciences, 2023).
Where two headings read alike, the source gives them in different places.

Experiments:
Assay type in all cases: in vivo, Danio rerio
zebrafish embryos [1] = assay: Chamber-specific heart rate (atrium, ventricle) after 2 h exposure, video recording; details: for EC50: Danio rerio, 4 dpf; for Lowest concentration inducing ventricular bradycardia (LOAEC): significant decrease in ventricular heart rate
Protocol: (§1) Experiments were conducted to assess lethality after 24 h exposure and quantify drug-induced effects on heart rate after 2 h exposure. Experiments were performed on day 4 of zebrafish development (4 dpf). On the day of the experiment, eleutheroembryos (hereafter embryos) were distributed into a 6-well plate (Thermo-Fisher Scientific, Madrid, Spain) by adding 12 embryos into each well with 5 mL of test solution. Embryos were exposed by immersion at 20 min intervals so that they could be mounted individually by ensuring equal exposure times in all groups. Each drug was tested at different concentrations (ranging from 1 to 1000 µM) in parallel with a control group (Goods buffer TAPS alone). The concentration range used was based on previous experiments with MDMA [58].
(§2) To avoid the movement of zebrafish embryos during recording, embryos were anesthetized by adding tricaine to exposure medium (0.08 mg/mL) and mounted in 3% methylcellulose (without tricaine) on double depression slides (Paul Marienfeld GmbH & Co. KG, Lauda-Königshofen, Germany) after drug exposure time. […] The slide was then transferred to an inverted light microscope (Nikon eclipse TS100, at 400×/N.A. 0.55, Nikon Instruments Inc., Amsterdam, The Netherlands) fitted with a high-speed video camera (Exilim, CASIO, Shibuya City, Japan). Sequential images of the heart (240 frames per second (fps)) were obtained with the embryo positioned on its side from the lateral position and with a duration of 10 s. Embryos were recorded one at a time, and all experiments were consistently conducted at the same time of day, controlling room temperature variation throughout video recordings.
To quantify atrial and ventricular heart rates in zebrafish, video recordings were analyzed with ImageJ v.1.53t. A plot of dynamic pixels was obtained by selecting an area of the heart ventricle or atrium with a high deviation of pixel intensity by means of the z-projection function (see Figure S4 for representative selection of heart ventricle and atrium area). The frequency as frames/beat was obtained by analyzing the waveform of dynamic pixels by the Fast Fourier Transform algorithm (FFT) using the “spectrum” function in R. Then, the resulting periodogram provides frequency information in cycles per frame, so to calculate the heart rate frequency (beats/min, bpm), the frequency values were multiplied by the frame rate (240 fps) to convert cycles per frame to cycles per second (Hz) and then multiplied by 60 to convert from Hz to bpm.
(§3) Concentration–response curves were derived from 2 h exposures and the 24 h acute toxicity test as effective concentrations 50 (EC50) and lethal concentrations 50 (LC50), respectively. Concentration–response curves were obtained with a sigmoidal concentration–response equation (Hill equation) using the package drc in R software (v.R-3.6.1).
(§4) Statistical analyses were conducted using GraphPad Prism 9 software. For all endpoints reported as means of mean values, data were considered to have a normal distribution according to the central limit theorem (by which means of random samples from any distribution will themselves have a normal distribution). Statistical comparison was performed by two-way ANOVA, followed by Tukey’s test, which was conducted to assess the effect of concentration and chamber (atrium–ventricle) on heart frequency or AI. Fisher’s Exact test was used for the statistical analysis of the proportion of embryos showing AV block and ventricular fibrillation. Students t-test was used to analyze the ventricular beat rate of zebrafish embryos exposed to the Cm.

zebrafish embryos [2] = assay: Twenty-four-hour acute toxicity test (lethality and abnormalities, 4 to 5 dpf); design: Embryos with spasms: dose or concentration left out as unconfirmed; details: 24 h exposure between 4 and 5 dpf; for Drug-induced abnormalities: all tested concentrations
Protocol: as §1
(§5) Embryos at 4 dpf were distributed to 6-well plates, and 10 embryos were placed into each well with 5 mL of drug test solution. Plates were incubated at 26 ± 1 °C under a 14:10 light:dark cycle for 24 h. Following 24 h exposure, endpoints used for assessing lethality (coagulation or lack of heartbeat) and morphological/functional abnormalities were recorded for each treatment group. Each drug was tested at different concentrations, and at least three independent experiments were performed.
as §3

[3] = as above; design: Embryos with spasms: dose or concentration left out as unconfirmed; details: zebrafish (Danio rerio), in vivo, other: immersion in test solution; 24 h exposure, 4 to 5 dpf, TAPS buffer pH 8.6; read-out: LC50 (CI95)
Protocol: as §1, §5, §3

zebrafish embryos [4] = assay: Arrhythmicity index (AI, heart rate variability) after 2 h exposure; details: 500 µM
Protocol: as §1
To avoid the movement of zebrafish embryos during recording, embryos were anesthetized by adding tricaine to exposure medium (0.08 mg/mL) and mounted in 3% methylcellulose (without tricaine) on double depression slides (Paul Marienfeld GmbH & Co. KG, Lauda-Königshofen, Germany) after drug exposure time. […] Embryos were recorded one at a time, and all experiments were consistently conducted at the same time of day, controlling room temperature variation throughout video recordings.
Heartbeat variability was determined by analysis of the interbeat intervals (heart period) (see Figure 7), similar to the analysis described in [61]. […]

zebrafish embryos [5] = assay: Tachycardic effects: beat rate after 10 min exposure at 10 µM, and ventricular beat rate at Cm after 2 h
zebrafish embryos [6] = assay: AV block 2:1 and ventricular fibrillation after 2 h exposure
Protocol: as §1, §2, §4

[7] = atrial bradycardia, read-out: EC50 (CI95) ATRIUM heart rate
[8] = ventricular bradycardia, read-out: EC50 (CI95) VENTRICLE heart rate

| Compound | EC50 (zebrafish embryos [1]; [7]) [µM] | EC50 (zebrafish embryos [1]; [8]) [µM] | Lowest concentration inducing ventricular bradycardia (LOAEC) (zebrafish embryos [1]) [µM] | Drug-induced abnormalities (zebrafish embryos [2]) | LC50 at 24 h [3] [µM] | Ventricle heartbeat (zebrafish embryos [4]) | Beat rate after shorter exposure time (zebrafish embryos [5]) | Lowest concentration provoking AV block (zebrafish embryos [6]) [µM] | Embryos with ventricular fibrillation (zebrafish embryos [6]; 500 µM) | Fold more potent in inducing bradycardia in the ventricle than in the atria (EC50) (zebrafish embryos [1]) [fold] | Embryos with spasms (zebrafish embryos [2]) [%] | Embryos with ventricular fibrillation (AV ratio > 2.5) (zebrafish embryos [6]; 50 µM) |
| --- | --- | --- | --- | --- | --- | --- | --- | --- | --- | --- | --- | --- |
| COC(=O)[C@H]1[C@@H](OC(=O)c2ccccc2)C[C@@H]2CC[C@H]1N2C [Cocaine, cocaine] | > 500 | 97.2 | 50 | No abnormalities observed | 173 | no ventricle heartbeat | significantly increased beat rates | 50 | all embryos | – | – | – |
| CNC(C)Cc1ccc2c(c1)OCO2 (stereo not shown) [MDMA, 3,4-methylenedioxy-methamphetamine] | 500 | 418 | 250 | – | 180 | – | – | 500 | – | – | – | – |
| CCCC(C(=O)c1ccc2c(c1)OCO2)N1CCCC1 (stereo not shown) [MDPV, 3,4-methylenedioxy-pyrovalerone] | 110 | 32.7 | 20 | – | 135 | – | – | 20 | – | 3.4 | 21 | more than half of the embryos tested |
| CNC(C)C(=O)c1ccc(C)cc1 (stereo not shown) [Mephedrone, mephedrone] | 601 | 403 | 250 | No abnormalities observed | 147 | – | – | 500 | – | – | – | – |
| CNC(C)C(=O)c1ccc2c(c1)OCO2 (stereo not shown) [Methylone, methylone] | > 1000 | 522 | 250 | No abnormalities observed | 127 | – | – | 250 | – | – | – | – |
